Reference: article PMC6539525, “Design, Synthesis, and Mechanism of Dihydroartemisinin–Coumarin Hybrids as Potential Anti-Neuroinflammatory Agents” (Molecules, 2019)
Read-outs that look alike come from different tables or passages of the source.

Tests used:
HT-29 cells = assay: MTT cytotoxicity in HT-29 cells; format: cell-based, Human; settings: Homo sapiens, MTT
Procedure: (§1) As the anti-neuroinflammatory agents for cancer patients, all newly synthesized compounds were evaluated in vitro for antitumor activity against human breast cancer cell line MDA-MB-231, colorectal cancer cells HT-29 and HCT-116, and lung cancer cell line A549 by using the standard MTT method, respectively. Doxorubicin (DOX) and DHA were used as the reference standard. Additionally, owing to the rapid proliferation, the tumor cells actually was always in hypoxia condition. Therefore, the in vitro cytotoxicity was evaluated in two different conditions (hypoxia and normoxia).
After recovery, the cells were cultured in 96-well plates for 24 h at 37 °C in a humidified atmosphere with 95% air and 5% CO2. After treated with different tested compounds, the hypoxia groups were placed in a sealed hypoxia incubator chamber (Stemcell Technologies, Inc., Vancouver, BC, Canada) filled with 5% CO2 and 95% N2 for 24 h, and then transferred to the incubator chamber filled with air for 72 h. […]
(§2) Cancer cells HT-29 (Human Colorectal Adenocarcinoma cell line), MDA-MB-231 (Human Breast Cancer cell line), HCT-116 (Human Colorectal Carcinoma cell line), and A549 (Human Lung Adenocarcinomic cell line) were from ATCC.
When the adherent cells reached 80% confluence, the culture medium was discarded. The cells were digested by trypsin and collected after centrifugation. The fresh culture medium was gently blown into it to form single-cell suspension. Cell suspension will be diluted to 1.5–3 × 10^4 cells/mL. Each hole of 96-well plates was added 100 μL cell suspension and incubated for 24 h (5% CO2; 37 °C). Then the holes were added different concentrations of tested compounds. The early screening concentration is set to 100 μM, 50 μM, 25 μM, 12.5 μM, and 6.25 μM. Three replicates were made for each concentration of the tested compounds. […] The medium was discarded and each well was added 100 μL DMSO to dissolve the formazan blue. Absorbance was measured at 570 nm with a microplate reader (Synergy-HT, BioTek Instruments, Winooski, VT, USA). […]

MDA-MB-231 cells = assay: MTT cytotoxicity in MDA-MB-231 cells; format: cell-based; settings: Homo sapiens
Procedure: as §1
(§3) After recovery, the cells were cultured in 96-well plates for 24 h at 37 °C in a humidified atmosphere with 95% air and 5% CO2. After treated with different tested compounds, the hypoxia groups were placed in a sealed hypoxia incubator chamber (Stemcell Technologies, Inc., Vancouver, BC, Canada) filled with 5% CO2 and 95% N2 for 24 h, and then transferred to the incubator chamber filled with air for 72 h. On the contrary, the normoxia groups were cultured under air condition for 96h.
as §2
(§4) When the adherent cells reached 80% confluence, the culture medium was discarded. The cells were digested by trypsin and collected after centrifugation. The fresh culture medium was gently blown into it to form single-cell suspension. Cell suspension will be diluted to 1.5–3 × 10^4 cells/mL. Each hole of 96-well plates was added 100 μL cell suspension and incubated for 24 h (5% CO2; 37 °C). Then the holes were added different concentrations of tested compounds. The early screening concentration is set to 100 μM, 50 μM, 25 μM, 12.5 μM, and 6.25 μM. Three replicates were made for each concentration of the tested compounds. After the cells were grown for 96h, 20 μL MTT (5 mg/mL) was added to each well and incubated for 4 h. The medium was discarded and each well was added 100 μL DMSO to dissolve the formazan blue. Absorbance was measured at 570 nm with a microplate reader (Synergy-HT, BioTek Instruments, Winooski, VT, USA).
(§5) Hypoxia condition: The cells were treated with different concentration of tested compounds, placed in hypoxia chamber (Catalog Number 27310, Stemcell Technologies, Inc., Vancouver, BC, Canada), and incubated for 24 h ([…]; 37 °C). Then the cells were placed in normoxia condition (5% CO2; 37 °C) and incubated for 72 h.

HCT-116 cells = assay: MTT cytotoxicity in HCT-116 cells; format: cell-based; settings: Homo sapiens
Procedure: as §1, §3, §2, §4, §5

A549 cells = assay: MTT cytotoxicity in A549 cells; format: cell-based; settings: Homo sapiens
Procedure: as §1, §3, §2, §4, §5

[1] = system: NO release of LPS-induced microglial N9 cells; assay: Inhibition of NO release in LPS-induced N9 cells (Griess); format: cell-based, murine; settings: Mus musculus, 1 μg/mL LPS for 48 h, NO level in medium
Procedure: (§6) The anti-neuroinflammatory activity of DCH was evaluated and then the representative compounds were selected for the further study. […] In addition, in order to exclude the death influence, MTT-IC20 of all the compounds were measured. […] The exact reason was still unclear, but we supposed that it might be related to the homeostasis of cells. The tumor cells actually were always in hypoxia condition, in which DCH could promote the cytotoxic activity against tumor cells. In brief, DCH could reduce the release of NO caused by LPS-induced microglial cells.
(§7) N9 cells, which were in the logarithmic phase, were incubated for 24 h by adherent culture. Subsequently, the medium was changed to new one without serum. The cells were treated with different concentration of tested compounds. After specific time in the LPS condition, the supernatants were collected and analyzed.
The nitrite levels in medium were determined by Griess reaction. The absorbance was measured at 540 nm using a microplate reader.

[2] = MTT cytotoxicity in N9 cells; format: cell-based, murine; settings: mouse, N9 microglial cells, cytotoxic activity
Procedure: as §6, §4, §7

[3] = HT-29, hypoxia 24 h then normoxia 72 h, read-out: IC50 HT-29 Hypoxia
[4] = HT-29, normoxia 96 h, read-out: IC50 HT-29 Normoxia
[5] = MDA-MB-231, hypoxia 24 h then normoxia 72 h, read-out: IC50 MDA-MB-231 Hypoxia
[6] = MDA-MB-231, normoxia 96 h, read-out: IC50 MDA-MB-231 Normoxia
[7] = HCT-116, hypoxia 24 h then normoxia 72 h, read-out: IC50 HCT-116 Hypoxia
[8] = HCT-116, normoxia 96 h, read-out: IC50 HCT-116 Normoxia
[9] = A549, hypoxia 24 h then normoxia 72 h, read-out: IC50 A549 Hypoxia
[10] = A549, normoxia 96 h, read-out: IC50 A549 Normoxia

Row | Structure (SMILES) | IC50 [1] [µM] | melting point [°C] | IC50 (HT-29 cells; [3]) [µM] | IC50 (HT-29 cells; [4]) [µM] | IC50 (MDA-MB-231 cells; [5]) [µM] | IC50 (MDA-MB-231 cells; [6]) [µM] | IC50 (HCT-116 cells; [7]) [µM] | IC50 (HCT-116 cells; [8]) [µM] | IC50 (A549 cells; [9]) [µM] | IC50 (A549 cells; [10]) [µM] | IC20 [2] [µM]
1 | C[C@H]1[C@@H](OCCc2cn(Cc3cc4cc(Cl)cc(Cl)c4oc3=O)nn2)O[C@@H]2O[C@@]3(C)CC[C@H]4[C@H](C)CC[C@@H]1[C@@]24OO3 [2d, 6,8-dichloro-3-((4-(2-((10S)-dihydroartemisininoxy)ethyl)-1H-1,2,3-triazol-1-yl)-methyl)-2H-1-chromen-2-one] | 1.35 | 101 to 103 | 30.8 | 19.5 | 47.9 | 88.5 | 46.5 | 53.2 | 69.7 | 96.5 | > 10
2 | C[C@H]1[C@@H](OCc2cn(Cc3cc4cc(Cl)cc(Cl)c4oc3=O)nn2)O[C@@H]2O[C@@]3(C)CC[C@H]4[C@H](C)CC[C@@H]1[C@@]24OO3 [1d, 6,8-dichloro-3-((4-((10S)-dihydroartemisininoxy)methyl-1H-1,2,3-triazol-1-yl)-methyl)-2H-1-chromen-2-one] | 1.6 | 113 to 115 | 13.3 | 14.9 | 33.9 | 68.9 | 48.6 | 60 | 45.4 | 53.3 | > 10
3 | Cc1cc(C)c2c(OCc3cn(CCO[C@H]4O[C@@H]5O[C@@]6(C)CC[C@H]7[C@H](C)CC[C@@H]([C@H]4C)[C@@]57OO6)nn3)cc(=O)oc2c1 [5l] | 3.36 | 111 to 113 | 3.76 | 2.78 | > 100 | > 100 | > 100 | > 100 | > 100 | > 100 | 7.13
4 | C[C@H]1[C@@H](OCc2cn(Cc3cc4cc(Cl)ccc4oc3=O)nn2)O[C@@H]2O[C@@]3(C)CC[C@H]4[C@H](C)CC[C@@H]1[C@@]24OO3 [1c, 6-chloro-3-((4-((10S)-dihydroartemisininoxy)methyl-1H-1,2,3-triazol-1-yl)-methyl)-2H-1-chromen-2-one] | 5.33 | 93 to 95 | 26.4 | 35.4 | 32.3 | > 100 | 40.4 | 60.3 | 48.7 | 73.5 | > 10
5 | Cc1ccc2c(OCc3cn(CCCO[C@H]4O[C@@H]5O[C@@]6(C)CC[C@H]7[C@H](C)CC[C@@H]([C@H]4C)[C@@]57OO6)nn3)cc(=O)oc2c1 [6k] | 1.91 | 80 to 82 | 5.32 | 6.85 | 14.5 | 38.6 | 33.7 | 28.1 | 9.49 | 14.9 | > 10
6 | C[C@H]1[C@@H](OCc2cn(Cc3cc4cc(Br)ccc4oc3=O)nn2)O[C@@H]2O[C@@]3(C)CC[C@H]4[C@H](C)CC[C@@H]1[C@@]24OO3 [1b, 6-bromo-3-((4-((10S)-dihydroartemisininoxy)methyl-1H-1,2,3-triazol-1-yl)-methyl)-2H-1-chromen-2-one] | > 10 | 78 to 80 | 13.1 | 21.4 | > 100 | > 100 | > 100 | > 100 | > 100 | > 100 | > 10
7 | Cc1cccc2c(OCc3cn(CCCO[C@H]4O[C@@H]5O[C@@]6(C)CC[C@H]7[C@H](C)CC[C@@H]([C@H]4C)[C@@]57OO6)nn3)cc(=O)oc12 [6o] | 1.43 | 143 to 145 | 29 | 81.6 | 18.6 | 47.6 | 42.4 | 12.1 | 39.9 | 78.1 | > 10

These reach a lower IC50 [1]. Values come first.

Row | IC50 [1] [µM] | melting point [°C] | Structure (SMILES) | IC50 (HT-29 cells; [3]) [µM] | IC50 (HT-29 cells; [4]) [µM] | IC50 (MDA-MB-231 cells; [5]) [µM] | IC50 (MDA-MB-231 cells; [6]) [µM] | IC50 (HCT-116 cells; [7]) [µM] | IC50 (HCT-116 cells; [8]) [µM] | IC50 (A549 cells; [9]) [µM] | IC50 (A549 cells; [10]) [µM] | IC20 [2] [µM]
8 | 0.94 | 93 to 95 | C[C@H]1[C@@H](OCCc2cn(Cc3cc4cc(Br)cc(Br)c4oc3=O)nn2)O[C@@H]2O[C@@]3(C)CC[C@H]4[C@H](C)CC[C@@H]1[C@@]24OO3 [2e, 6,8-dibromo-3-((4-(2-((10S)-dihydroartemisininoxy)ethyl)-1H-1,2,3-triazol-1-yl)-methyl)-2H-1-chromen-2-one] | 13.9 | 38.5 | 44.1 | > 100 | 86.5 | 94.2 | 79.4 | > 100 | > 10
9 | 0.97 | 143 to 145 | C[C@H]1[C@@H](OCCc2cn(Cc3cc4ccccc4oc3=O)nn2)O[C@@H]2O[C@@]3(C)CC[C@H]4[C@H](C)CC[C@@H]1[C@@]24OO3 [2a, 3-((4-(2-((10S)-dihydroartemisininoxy)ethyl)-1H-1,2,3-triazol-1-yl)-methyl)-2H-1-chromen-2-one] | 19.4 | > 100 | > 100 | > 100 | > 100 | > 100 | > 100 | > 100 | > 10
10 | 1.08 | 111 to 113 | Cc1cc(C)c2oc(=O)cc(OCc3cn(CCO[C@H]4O[C@@H]5O[C@@]6(C)CC[C@H]7[C@H](C)CC[C@@H]([C@H]4C)[C@@]57OO6)nn3)c2c1 [5m] | 5.89 | 12.9 | 13 | 14.2 | 44.8 | 62.8 | 1.28 | 2.67 | 1.04
11 | 1.13 | 115 to 117 | Cc1ccc2c(OCc3cn(CCCO[C@H]4O[C@@H]5O[C@@]6(C)CC[C@H]7[C@H](C)CC[C@@H]([C@H]4C)[C@@]57OO6)nn3)cc(=O)oc2c1C [6n] | 4.19 | 9.16 | 10.8 | 13.3 | 33.7 | 22.5 | 0.039 | 30.4 | 6.53
12 | 0.29 | 74 to 76 | C[C@H]1[C@@H](OCCCn2cc(COc3cc(=O)oc4ccccc34)nn2)O[C@@H]2O[C@@]3(C)CC[C@H]4[C@H](C)CC[C@@H]1[C@@]24OO3 [6j] | 7.42 | 10.5 | 33.4 | 67.4 | 32.8 | 25.9 | 49 | 53.4 | > 10
